Data from patent publication US9655899B2, “Compositions and methods for treating cancer” (Merck Sharp & Dohme Corp., priority 2012, dated 2017).
Where two headings read alike, the source gives them in different places.

Columns and labels:
NCI-H460 [1] = test: PKMYT1 siRNA knockdown proliferation assay (ViaLight, 72 hours); assay type: cell-based, human; conditions: for dose response curves in control (CT) versus PKMYT1 siRNA transfected cells / EC50: 72 hours; for EC50: Homo sapiens, NCI-H460, 72 h, n=3, read-out: anti-proliferative EC50
Description: (§1) For the knockdown studies, NCI-H460 and KNS62, two non-small cell lung cancer cell lines, American Type Culture Collection, Manassas, Va., were transfected with siRNA pools (SMARTpool, Dharmacon, Thermo Fisher Scientific, Waltham, Mass.) with either non-targeting control or PKMYT1 sequences. […] To approximate cell content, ViaLight (Lonza, Basel, Switzerland) was used according to manufacturer's protocol. Samples were run in triplicate and growth was calculated by determining the percentage of the control raw value for each treatment.

KNS62 [2] = test: as above; assay type: cell-based, human; conditions: for dose response curves in control (CT) versus PKMYT1 siRNA transfected cells / EC50: 72 hours; for EC50: Homo sapiens, KNS-62, 72 h, n=2, read-out: anti-proliferative EC50
Description: as §1

NCI-H460 [3] = test: Proliferation assay; assay type: cell-based; conditions: Homo sapiens
Description: (§2) All cancer cell lines were grown in medium recommended by the cell line vendor (ATCC). Tissue culture media, serum, and supplements were purchased from Sigma-Aldrich® (St. Louis, Mo.). For the proliferation assay screen (FIG. 1), cells were plated in 384-well tissue culture plates and grown under compound or vehicle treatment. After 96 hours, CellTiter-Glo (Promega, Madison, Wis.) was used according to the manufacturer's protocol to approximate cell content. Samples were run in triplicate and growth was calculated as the CellTiter-Glo raw value of treated samples relative to vehicle-treated control wells.

ES-2 = test: Proliferation assay; assay type: cell-based; conditions: Homo sapiens
Description: as §2

A431 = test: Proliferation assay; assay type: cell-based; conditions: Homo sapiens, A-431
Description: as §2

[4] = test system: A427 non-small cell lung cancer cell line; test: Proliferation assay; assay type: cell-based; conditions: Homo sapiens, A-427
Description: as §2

KNS62 [5] = test: Proliferation assay; assay type: cell-based; conditions: Homo sapiens, KNS-62
Description: as §2

ES-2 cells [6] = test: Flow cytometry for γH2AX in serum-starved cells with or without FBS; assay type: cell-based, human; conditions: 500 nM; 24 hours; 20% FBS
Description: (§3) To detect DNA double strand breaks, cells were stained with a FITC-conjugated anti-γH2AX (S139) antibody (kit 17-344, Millipore, Billerica, Mass.) after having been fixed overnight in ice-cold 70% ethanol Propidium iodide (PI)/RNase solution (BD Biosciences, Franklin Lakes, N.J.) was used to detect total DNA content. For studies interrogating premature mitosis, an anti-pHH3-Alexa 647 antibody (BD Biosciences 558217) was added. For synchronization studies, cells were incubated in serum-free medium for 36 hours, followed by replenishment with 20% FBS. One hour prior to each harvest, cells were pulsed with 10 μM bromodeoxyuridine (BrdU). Cells were fixed and stained for BrdU and DNA content with an anti-BrdU FITC-conjugated antibody and 7-aminoactinomycin-D (7-AAD) dye, respectively, according to the instructions in the BD Pharmingen™ FITC BrdU Flow Kit (BD Biosciences, Franklin Lakes, N.J.). All cytometry data were collected on the BD LSR II flow cytometer using the BD FACS Diva™ software (BD Biosciences, Franklin Lakes, N.J.), and the results were analyzed in FlowJo version 7.5.

A2058 cells [7] = test: Flow cytometry for mitotic marker pHH3; assay type: cell-based, human; conditions: EC90 concentration; 24 hours
Description: (§4) To detect DNA double strand breaks, cells were stained with a FITC-conjugated anti-γH2AX (S139) antibody (kit 17-344, Millipore, Billerica, Mass.) after having been fixed overnight in ice-cold 70% ethanol Propidium iodide (PI)/RNase solution (BD Biosciences, Franklin Lakes, N.J.) was used to detect total DNA content. For studies interrogating premature mitosis, an anti-pHH3-Alexa 647 antibody (BD Biosciences 558217) was added.

LoVo cells [8] = test: Flow cytometry for mitotic marker pHH3; assay type: cell-based, human; conditions: EC90 concentration; 24 hours
Description: as §4

HT-29 cells [9] = test: Flow cytometry for mitotic marker pHH3; assay type: cell-based, human; conditions: EC90 concentration; 24 hours
Description: as §4

pCHK1^S345 = test: Western blot, DNA damage response marker; assay type: cell-based, human; conditions: 2 hours
Description: (§5) Cells were lysed in mammalian protein extraction reagent (MPER, Thermo Fisher 78505, Waltham, Mass.) and then subjected to SDS-PAGE and transferred onto nitrocellulose or PVDF membranes. Antibodies used for Western blotting are from the following sources: total CDK1, pCDK1^Y15, pCDK1^T14, pCHK1^S345, pStathmin^S38, pLaminA/C^S22, pCDK substrate motif, γH2AX, Cyclin A, and total PKMYT1 from Cell Signaling Technologies (Beverly, Mass.); actin-HRP from Santa Cruz Biotechnology (Santa Cruz, Calif.); secondary HRP-conjugated anti-mouse and rabbit antibodies from GE Healthcare (Waukesha, Wis.). Blots were exposed with SuperSignal West Femto chemiluminescent substrate (Thermo Fisher Pierce, Waltham, Mass.).

522 cancer cell lines = test: Cellular proliferation assay screen (CellTiter-Glo, 96 hours); assay type: cell-based, human; conditions: for EC50: Homo sapiens, 96 h
Description: as §2

pCDK1^T14 = test: Western blot, CDK1 T14 phosphorylation; assay type: cell-based, human; conditions: six cell lines, possible exception of A427; 2 hours
Description: as §5

pCDK1^Y15 = test: Western blot, WEE1 substrate phosphorylation; assay type: cell-based, human; conditions: all six cell lines; 2 hours
Description: as §5

[10] = twice daily (BID) dosing
Description: (§6) CD-1 Nu/Nu female mice aged 5-6 weeks were obtained from Charles River Laboratories (Wilmington, Del.) and housed in Applicants animal care facility at standard laboratory conditions and fed 2018S autoclaveable diet (Harlan Laboratories, Indianapolis, Ind.) and water ad libitum. The protocol was approved by Applicants' in-house animal care and use committee. Mice were inoculated with cells (1:1 Matrigel:PBS) subcutaneously (SC) into the right flank. […] Tumor volume and body weights were recorded bi-weekly.

A2058 cells [11] = test: Flow cytometry for γH2AX at EC90; assay type: cell-based, human; conditions: EC90 concentration; 24 hours
Description: as §4

LoVo cells [12] = test: Flow cytometry for γH2AX at EC90; assay type: cell-based, human; conditions: EC90 concentration; 24 hours
Description: as §4

HT-29 cells [13] = test: Flow cytometry for γH2AX at EC90; assay type: cell-based, human; conditions: EC90 concentration; 24 hours
Description: as §4

[14] = test system: TOV21G ovarian cancer cells; test: Flow cytometry for DNA double strand breaks (γH2AX) and BrdU uptake; assay type: cell-based, human; conditions: 150 nM
Description: as §3

ES-2 cells [15] = test: Cell synchronization study, S-phase population (BrdU); assay type: cell-based, human
Description: For synchronization studies, cells were incubated in serum-free medium for 36 hours, followed by replenishment with 20% FBS. One hour prior to each harvest, cells were pulsed with 10 μM bromodeoxyuridine (BrdU). Cells were fixed and stained for BrdU and DNA content with an anti-BrdU FITC-conjugated antibody and 7-aminoactinomycin-D (7-AAD) dye, respectively, according to the instructions in the BD Pharmingen™ FITC BrdU Flow Kit (BD Biosciences, Franklin Lakes, N.J.). All cytometry data were collected on the BD LSR II flow cytometer using the BD FACS Diva™ software (BD Biosciences, Franklin Lakes, N.J.), and the results were analyzed in FlowJo version 7.5.

NCI-H2122 NSCLC model = test: In vivo efficacy, xenograft; design: species or system mice; conditions: single agent
Description: as §6

[16] = test system: A431 epidermoid tumor model; test: In vivo efficacy, xenograft; design: species or system mice; conditions: single agent
Description: as §6

A427 xenograft = test: In vivo efficacy, xenograft; design: species or system mice; conditions: 60 mg/kg BID, 28 days
Description: as §6

[17] = test system: LoVo colorectal tumor model; test: In vivo efficacy, xenograft; design: species or system mice; conditions: single agent, 60 mg/kg BID; treatment stopped on day 13
Description: as §6

SK-MES-1 NSCLC model = test: In vivo efficacy, xenograft; design: species or system mice; conditions: single agent, 60 mg/kg BID
Description: as §6

[18] = test system: colorectal cancer cell lines; test: Cellular proliferation assay screen (CellTiter-Glo, 96 hours); assay type: cell-based; conditions: Homo sapiens, n=66
Description: as §2

[19] = test system: neuroblastoma tumor cell lines; test: as above; assay type: cell-based; conditions: Homo sapiens, n=7
Description: as §2

Compound: N.N.O=C([O-])C1(C(=O)[O-])CCC1.[Pt+2] [carboplatin, reference compound]
- dose response curves in control (CT) versus PKMYT1 siRNA transfected cells (NCI-H460 [1]): identical dose response curves
- dose response curves in control (CT) versus PKMYT1 siRNA transfected cells (KNS62 [2]): identical dose response curves

Compound: C=CCn1c(=O)c2cnc(Nc3ccc(N4CCN(C)CC4)cc3)nc2n1-c1cccc(C(C)(C)O)n1 [WEE1-1, 2-allyl-1-[6-(1-hydroxy-1-methylethyl)pyridin-2-yl]-6-{[4-(4-methylpiperazin-1-yl)phenyl]amino}-1,2-dihydro-3H-pyrazolo[3,4-d]pyrimidin-3-one]
- EC50 (NCI-H460 [3]): 535 nM
- EC50 (ES-2): 256 nM
- EC50 (A431): 170 nM
- EC50 [4]: 116 nM
- EC50 (KNS62 [5]): 487 nM
- degree of DNA double strand breaks (γH2AX) under mitogen stimulation versus cells not restimulated (ES-2 cells [6]): appreciably larger
- percentage of pHH3 positive cells (A2058 cells [7]): increased
- percentage of pHH3 positive cells (LoVo cells [8]): increased
- mitotic (pHH3 positive) population with 4N DNA (HT-29 cells [9]): 43%
- mitotic (pHH3 positive) population with <4N DNA (HT-29 cells [9]): 23%
- lowest concentration with evidence of increased pCHK1^S345 (pCHK1^S345; ES-2, A2058, A431 and A427): 50 nM
- activation of the DDR (pCHK1^S345) (pCHK1^S345; all six cell lines (ES-2, A2058, A431, A427, KNS62, NCI-H460)): dose-dependent activation of the DDR
- response on an adjusted scale (cell lines that were killed) (522 cancer cell lines; 450 nM, 33 of 305 cell lines, 96-hour proliferation assay, 0.25 or less = cell death): < 0.25
- EC50 (522 cancer cell lines; lower end of range, 2% (9/522) of cell lines): ≤ 100 nM
- EC50 (522 cancer cell lines; upper end of range, 19% (98/522) of cell lines): ≥ 1000 nM
- range of anti-proliferative EC50s (522 cancer cell lines; across cell lines screened): at least 10 fold
- effect on pCDK1^T14 (pCDK1^T14): did not observe a WEE1-1-dependent effect
- effect on pCDK1^Y15 (pCDK1^Y15): dose-dependent reduction
- maximal effect of treatment upon PKMYT1 depletion (NCI-H460 [1]): not affected
- EC50 (NCI-H460 [1]; PKMYT1 knocked down): 104 nM
- EC50 (NCI-H460 [1]; non-targeting control siRNA): 677 nM
- maximal effect of treatment upon PKMYT1 depletion (KNS62 [2]): not affected
- EC50 (KNS62 [2]; PKMYT1 knocked down): 93 nM
- EC50 (KNS62 [2]; non-targeting control siRNA): 487 nM
- maximum tolerated dose (MTD) [10]: 60 mg per kg
- H2AX-positive cell population (A2058 cells [11]): 8%
- H2AX-positive cell population (LoVo cells [12]): 27%
- H2AX-positive cell population (HT-29 cells [13]): 59%
- share of DNA damage detected in BrdU-positive cells ([14]; 2 hours): 95%
- share of DNA damage detected in BrdU-positive cells ([14]; 6 hours): 92%
- cells staining positive for γH2AX ([14]; two hours of treatment, 1% to 2% in untreated growing cells): 23%
- change in the S-phase population by 8 hours (ES-2 cells [15]; 500 nM with 20% FBS): no detectable change
- peak S-phase population (ES-2 cells [15]; 500 nM with 20% FBS after 36 hours serum withdrawal): about 50%
- time of peak S-phase population post-FBS (ES-2 cells [15]; 500 nM with 20% FBS, vehicle peak at 12 to 14 hours): 24 h
- TGI (NCI-H2122 NSCLC model): 64%
- TGI [16]: 88%
- final volumes of individual treated tumors versus initial volumes (A427 xenograft; all 10 tumors): smaller than their initial volumes
- regression, final volume as % of the initial mean tumor volume (A427 xenograft; n=10): approximately 50%
- tumor regression [17]: 13%
- Tumor growth inhibition (TGI) (SK-MES-1 NSCLC model): 92%
- EC50 ([18]; read-out: EC50 range): ≥ 170 nM
- EC50 ([18]; read-out: mean EC50): 1160 nM
- EC50 ([19]; read-out: EC50 range): 120 to 450 nM
- EC50 ([19]; read-out: mean EC50): 280 nM

Compound: O=C(NOC[C@H](O)CO)c1ccc(F)c(F)c1Nc1ccc(I)cc1F [PD-0325901, reference compound]
- dose response curves in control (CT) versus PKMYT1 siRNA transfected cells (NCI-H460 [1]): identical dose response curves
- dose response curves in control (CT) versus PKMYT1 siRNA transfected cells (KNS62 [2]): identical dose response curves

Compound: COc1cccc2c1C(=O)c1c(O)c3c(c(O)c1C2=O)C[C@@](O)(C(=O)CO)C[C@@H]3O[C@H]1C[C@H](N)[C@H](O)[C@H](C)O1 [doxorubicin, reference compound]
- dose response curves in control (CT) versus PKMYT1 siRNA transfected cells (NCI-H460 [1]): identical dose response curves
- dose response curves in control (CT) versus PKMYT1 siRNA transfected cells (KNS62 [2]): identical dose response curves
